The numbers were not newly measured in patent publication US12281304B2, “Compositions and methods for treating and preventing muscular disorders and dystrophies, steroid side effects, and inflammation” (Children's National Medical Center, priority 2018, dated 2025), which cites them from elsewhere.

One data set has as its system mdx mice. Conditions: same mdx mice as discovery set; prednisolone 5 mg/kg, vamorolone 15 mg/kg; cited from earlier work.
The conditions of data set [1]: preclinical mdx mouse and human Phase I trials; cited from earlier work.
The target in data set [2] is T1, glucocorticoid receptor (GR) (Homo sapiens, UniProt P04150).
T1 sequence (P04150 1-777): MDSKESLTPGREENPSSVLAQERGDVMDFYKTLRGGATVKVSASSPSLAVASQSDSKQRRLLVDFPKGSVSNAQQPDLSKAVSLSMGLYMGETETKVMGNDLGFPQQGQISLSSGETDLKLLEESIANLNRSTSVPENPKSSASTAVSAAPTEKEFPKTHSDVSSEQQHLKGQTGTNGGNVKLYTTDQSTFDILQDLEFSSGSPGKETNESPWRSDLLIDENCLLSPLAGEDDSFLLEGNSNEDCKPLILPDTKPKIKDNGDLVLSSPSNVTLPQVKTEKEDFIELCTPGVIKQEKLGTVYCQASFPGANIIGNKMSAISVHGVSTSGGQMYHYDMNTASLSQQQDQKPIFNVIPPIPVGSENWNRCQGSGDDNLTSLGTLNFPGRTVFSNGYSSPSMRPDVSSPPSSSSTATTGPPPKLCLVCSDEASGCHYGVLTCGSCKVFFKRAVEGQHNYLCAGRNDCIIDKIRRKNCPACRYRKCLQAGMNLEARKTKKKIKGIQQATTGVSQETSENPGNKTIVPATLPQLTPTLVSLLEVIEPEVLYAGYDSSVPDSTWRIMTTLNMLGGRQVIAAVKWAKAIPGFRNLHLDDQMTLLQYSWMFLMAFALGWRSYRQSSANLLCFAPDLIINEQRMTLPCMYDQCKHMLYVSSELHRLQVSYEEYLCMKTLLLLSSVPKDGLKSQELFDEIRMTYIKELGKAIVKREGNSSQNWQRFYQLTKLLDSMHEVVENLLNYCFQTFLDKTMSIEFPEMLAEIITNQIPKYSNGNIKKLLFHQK
As to conditions: cited from earlier work.

The structures appear in SMILES notation.

Consider `C[C@]12C=CC(=O)C=C1CC[C@@H]1[C@@H]2[C@@H](O)C[C@@]2(C)[C@H]1CC[C@]2(O)C(=O)CO` [prednisolone], for which, in the data set with mdx mice, the “grip strength, muscle pathology and diaphragm inflammation” value is “successfully improved grip strength, muscle pathology, and diaphragm inflammation”; the “steroid side effects (stunted growth, immunosuppression, bone loss)” value was “caused traditional steroid side effects of stunted growth, immunosuppression, and bone loss”.

Turning to `C[C@@H]1C[C@H]2[C@@H]3CCC4=CC(=O)C=C[C@]4(C)C3=CC[C@]2(C)[C@@]1(O)C(=O)CO` [vamorolone], the “steroidal side effects in comparison to prednisone” value in data set [1] is on record as “avoids or has substantially reduced steroidal side effects in comparison to prednisone”. Also, the “binding to the GR” value in data set [2] is on record as “high affinity”. In the data set on mdx mice, the “grip strength, muscle pathology and diaphragm inflammation” value was “successfully improved grip strength, muscle pathology, and diaphragm inflammation”; the “steroid side effects (stunted growth, immunosuppression, bone loss)” value is “successfully avoided these side effects”.
